Measurements as given in patent publication US8088804B2, “N-hydroxyamide derivatives possessing antibacterial activity” (Pfizer Inc., priority 2005, dated 2012).
≈ marks a conversion by molar mass, not a printed value. Where two headings read alike, the source gives them in different places.

Columns and labels:
[1] = tested on: E. coli tolC; assay: Susceptibility testing (MIC, CLSI microdilution); type: cell-based, Escherichia coli; conditions: 20 h at 35° C., unit assumed
Experimental: (§1) Compounds were tested following the microdilution method of CLSI (Clinical and Laboratory Standards Institute. Methods for dilution antimicrobial susceptibility tests for bacteria that grow aerobically; Approved standard—sixth edition. CLSI document M7-A5, CLSI, Wayne, Pa. 2003). Assays were performed in sterile plastic 96-well microtiter trays with round bottom wells (Greiner).
(§2) Stock solutions of test compounds and control antibiotics were prepared at 10 mg/ml in DMSO. Serial 2-fold dilutions of each drug were performed in a microtiter plate across each row using DMSO as solvent at 100-fold the desired final concentration. Wells in columns #1-11 contain drug and column #12 was kept as a growth control for the organism with no drug. Each well in the mother plate was diluted with sterile deionized water and DMSO, mixed, and volumes of 10 μl distributed to each well in the resulting assay plates.
(§3) Stock cultures were prepared using the Microbank™ method (Pro-Lab Diagnostics) and stored at −80° C. To propagate each strain, one bead was removed from the frozen vial and aseptically streaked onto Trypticase Soy Agar (Difco) which were incubated at 35° C. Standardized inocula were prepared using the direct colony suspension method according to CLSI guidelines (Clinical and Laboratory Standards Institute. Methods for dilution antimicrobial susceptibility tests for bacteria that grow aerobically; Approved standard—sixth edition. CLSI document M7-A5, CLSI, Wayne, Pa., 2003). Isolated colonies were selected from an 18-24 hr agar plate and resuspended in 0.9% sterile saline to match a 0.5 McFarland turbidity standard using a calorimeter (Vitek) at 80% of transmitance. The suspension was used within 15 minutes of preparation.
(§4) Mueller-Hinton Broth (MHB) (Difco) was prepared at a 1.1× concentration and supplemented with Ca++ and Mg++ as recommended by CLSI. For each organism, the standardized suspension was diluted 1:180 into appropriate growth medium in a sterile reservoir. After mixing, wells in the drug-containing assay plates were inoculated with a volume of 90 μl. Thus, for each minimum inhibitory concentration (MIC) determination, each well contains a final volume of 100 μl with an inoculum size of approximately 5×10^5 colony forming units (cfu)/ml and no more than 1% DMSO.
(§5) The completed microtiter plates were incubated 20 h at 35° C. in ambient air. Optical density of each well was determined at 600 nm using a VersaMax Microplate reader (Molecular Devices, Sunnyvale, Calif.). The MIC was defined as the lowest drug concentration causing complete suppression of visible bacterial growth.

[2] = tested on: E. coli (2); assay: Susceptibility testing (MIC, CLSI microdilution); type: cell-based, Escherichia coli; conditions: 20 h at 35° C., in µg/mL (unit assumed)
Experimental: as §1, §2, §3, §4, §5

[3] = target: P. ae LpxC enzyme (Pseudomonas aeruginosa, UniProt P47205); assay: Enzyme inhibition testing (fluorescamine assay); type: biochemical; conditions: for inhibition at 10 µg/mL: @10 μg/ml; for inhibition at 0.5 µg/mL: @0.5 μg/ml
P. ae LpxC enzyme, sequence (P47205 whole entry): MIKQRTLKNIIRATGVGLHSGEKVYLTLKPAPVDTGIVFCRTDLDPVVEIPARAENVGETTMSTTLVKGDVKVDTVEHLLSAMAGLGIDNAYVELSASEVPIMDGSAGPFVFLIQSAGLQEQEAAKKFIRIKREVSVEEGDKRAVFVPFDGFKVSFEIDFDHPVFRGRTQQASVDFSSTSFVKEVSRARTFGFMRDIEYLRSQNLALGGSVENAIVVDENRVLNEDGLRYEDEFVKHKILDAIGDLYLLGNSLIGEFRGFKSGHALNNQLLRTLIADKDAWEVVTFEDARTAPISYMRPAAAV
Experimental: Compounds were tested based on a published method (Wang W., 2001, Anal Biochem, 290, 338-46) with modifications. Enzyme assays were performed in the assay buffer (50 mM HEPES, pH8, 0.005% Brij, 50 μM ZnSO4, 1 mg/ml BSA) in 96-well V-bottom microtiter plates.
Stock solutions of test compounds and control antibiotics are prepared at 10 mg/ml in DMSO and are diluted in the assay buffer to 6-fold the final testing concentration. 5 μl compound dilution is distributed to the well of the assay plate. EDTA is used as positive control and the final concentration in assay is 12.5 mM.
P. ae LpxC enzyme dilution in the assay buffer is added to the compound in plate and pre-incubated with the compound at room temperature for 10 min. LpxC substrate is added to initiate the enzyme reaction and the final enzyme and substrate concentrations are 1.2 μM and 0.4 mM, respectively. The reaction continues at RT for 4 hrs before diluted with 45 μl of Borate buffer (0.4 M, pH9), followed by addition of 40 μl derivatization reagent (fluorescamine 2 mg/ml DMF). This mixture is incubated at RT for 10 min followed by addition of 150 μl DMF/H2O (1:1). The resulting solution is loaded onto Millipore filter unit (Microcon 10 k MWCO) and spun at 13 k rpm on bench top centrifuge for 15 min. 100 μl of this filtrate is transferred to a low fluorescence clear-bottom 96-well plate (Corning) and the fluorescence is detected at ex360 nm and em465 nm on a Tecan fluorescence plate reader. The percent inhibition is calculated based on EDTA produces 100% inhibition and negative control produces 100% activity.

[4] = tested on: K. pneu.; assay: Susceptibility testing (MIC, CLSI microdilution); type: cell-based, Klebsiella pneumoniae; conditions: 20 h at 35° C., unit assumed
Experimental: as §1, §2, §3, §4, §5

[5] = tested on: P. aerug. Hypersuc; assay: Susceptibility testing (MIC, CLSI microdilution); type: cell-based, Pseudomonas aeruginosa; conditions: 20 h at 35° C., Δ efflux, hypersusceptible strain, unit assumed
Experimental: as §1, §2, §3, §4, §5

[6] = tested on: H. influen.; assay: Susceptibility testing (MIC, CLSI microdilution); type: cell-based, Haemophilus influenzae; conditions: 20 h at 35° C., unit assumed
Experimental: as §1, §2, §3, §4, §5

[7] = tested on: P. aerug. (2); assay: Susceptibility testing (MIC, CLSI microdilution); type: cell-based, Pseudomonas aeruginosa; conditions: 20 h at 35° C., in µg/mL (unit assumed)
Experimental: as §1, §2, §3, §4, §5

[8] = @0.1 μg/ml, read-out: ENZYME (percent inhibition)
[9] = read-out: ENZYME (percent inhibition)

| SMILES | MIC E. coli tolC [1] [µg/mL] | MIC E. coli (2) [2] | inhibition at 0.1 µg/mL ([3]; read-out: ENZYME (percent inhibition), @0.1 μg/ml) [%] | MIC K. pneu. [4] [µg/mL] | MIC P. aerug. Hypersuc [5] [µg/mL] | MIC H. influen. [6] [µg/mL] | inhibition at 0.1 µg/mL [3, 8] [%] | MIC P. aerug. (2) [7] | inhibition at 10 µg/mL [3, 9] [%] | ENZYME (percent inhibition) ([3]; @0.1 μg/ml) [%] | inhibition at 0.5 µg/mL [3, 9] [%] | inhibition at 1 µg/mL ([3]; @1 μg/ml, read-out: ENZYME (percent inhibition)) [%] |
| --- | --- | --- | --- | --- | --- | --- | --- | --- | --- | --- | --- | --- |
| O=C(NO)[C@H]1N(C(=O)c2ccc(-c3cc(F)cc(F)c3)cc2)CCS1(=O)=O [Compound 36, (S)-3-(3′,5′-Difluorobiphenylcarbonyl)-N-hydroxythiazolidinesulfone-2-carboxamide] | 0.125 (≈ 0.315 µM) | >64 | 8 | > 64 | 8 (≈ 20.2 µM) | > 64 | – | – | – | – | – | – |
| CCCc1ccc(-c2ccc(C(=O)NC(C(=O)NO)C(F)(F)F)cc2)cc1 (racemic) [Compound 20, DL-4′-Propyl-biphenyl-4-carboxylic acid (2,2,2-trifluoro-1-hydroxycarbamoyl-ethyl)-amide] | 0.25 (≈ 0.657 µM) | 0.5 | – | 0.5 (≈ 1.31 µM) | 1 (≈ 2.63 µM) | 0.25 (≈ 0.657 µM) | < 10 | 16 | – | – | – | – |
| CCCc1ccc(-c2ccc(C(=O)N3CCS(=O)(=O)[C@H]3C(=O)NO)cc2)cc1 [Compound 15, (S)-N-Hydroxy-3-(4′-propylbiphenylcarbonyl)thiazolidine-sulfone-2-carboxamide] | 2 (≈ 4.97 µM) | 16 | – | 4 (≈ 9.94 µM) | 2 (≈ 4.97 µM) | 32 (≈ 79.5 µM) | 41 | 8 | – | – | – | – |
| CCCc1ccc(-c2ccc(C(=O)N3CC[C@@H](OC)[C@H]3C(=O)NO)cc2)cc1 [Compound 8] | 32 (≈ 83.7 µM) | >64 | – | > 64 | > 64 | 64 (≈ 167 µM) | – | >64 | 21 | – | – | – |
| O=C(NO)[C@H]1N(C(=O)c2ccc(-c3ccc(F)cc3)cc2)CCS1(=O)=O [Compound 37, (S)-3-(4′-Fluorobiphenylcarbonyl)-N-hydroxythiazolidinesulfone-2-carboxamide] | ≤ 0.06 | >64 | – | > 64 | 2 (≈ 5.29 µM) | > 64 | 32 | 4-32 | – | 42 | – | – |
| CCCc1ccc(-c2ccc(C(=O)N3CS(=O)(=O)CC3C(=O)NO)cc2)cc1 (stereo in doubt) [Compound 17, (S)-N-Hydroxy-3-(4′-propylbiphenylcarbonyl)thiazolidine-sulfone-4-carboxamide] | 8 (≈ 19.9 µM) | – | – | 16 (≈ 39.8 µM) | 2 (≈ 4.97 µM) | > 64 | – | 16 | – | – | 98 | – |
| CCCc1ccc(-c2ccc(C(=O)N3CC[C@H](N)[C@H]3C(=O)NO)cc2)cc1 [Compound 2] | 32 (≈ 87.1 µM) | 64 | – | 64 (≈ 174 µM) | 64 (≈ 174 µM) | 16 (≈ 43.5 µM) | – | – | – | – | 65 | – |
| CCCc1ccc(-c2ccc(C(=O)N3C[C@H](N)[C@@H](O)[C@H]3C(=O)NO)cc2)cc1 [Compound 12] | > 64 | >64 | – | > 64 | 8 (≈ 20.9 µM) | 32 (≈ 83.5 µM) | – | – | – | – | 95 | – |
| O=C(NO)c1cocc1C(=O)Nc1cccc(SC(F)(F)F)c1 [Compound 32] | 64 (≈ 185 µM) | – | – | > 64 | > 64 | > 64 | – | >64 | < 10 | – | – | – |
| CCCc1ccc(-c2ccc(C(=O)N3CC[C@H](OC)[C@H]3C(=O)NO)cc2)cc1 [Compound 7] | 64 (≈ 167 µM) | – | – | 64 (≈ 167 µM) | 64 (≈ 167 µM) | > 64 | – | >64 | 84 | – | – | – |
| CCCc1ccc(-c2ccc(C(=O)N3CC[C@@H](O)[C@H]3C(=O)NO)cc2)cc1 [Compound 39] | 64 (≈ 174 µM) | >64 | – | > 64 | 4 (≈ 10.9 µM) | > 64 | – | – | – | – | – | 95.2 |
